Test results taken from BindingDB's records for patent US10065963 (Incyte Corporation, 2018).

Key:
[1] = molecular target: Tyrosine-protein kinase JAK1 (Homo sapiens, UniProt P23458); experiment: In Vitro JAK Kinase Assay; conditions: pH 7.8; 25 °C
[2] = molecular target: Phosphatidylinositol 4,5-bisphosphate 3-kinase catalytic subunit gamma isoform (Homo sapiens, UniProt P48736); experiment: PI3K-gamma Scintillation Proximity Assay; conditions: pH 6.7; 25 °C
Procedure: PI3Kγ (p110γ) Recombinant Human Protein was purchased from Life technology (Grand Island, N.Y.). […] The final concentration of DMSO in the assay was 2%. […] ATP, 13 nM PI3Kγ. […] The final concentration of SPA beads is 1.0 mg/mL.

[3] = molecular target: T1, Phosphatidylinositol 4,5-bisphosphate 3-kinase catalytic subunit delta isoform (Homo sapiens, UniProt O00329); experiment: PI3K-delta Scintillation Proximity Assay; conditions: pH 6.7; 25 °C
T1 sequence (O00329 whole entry): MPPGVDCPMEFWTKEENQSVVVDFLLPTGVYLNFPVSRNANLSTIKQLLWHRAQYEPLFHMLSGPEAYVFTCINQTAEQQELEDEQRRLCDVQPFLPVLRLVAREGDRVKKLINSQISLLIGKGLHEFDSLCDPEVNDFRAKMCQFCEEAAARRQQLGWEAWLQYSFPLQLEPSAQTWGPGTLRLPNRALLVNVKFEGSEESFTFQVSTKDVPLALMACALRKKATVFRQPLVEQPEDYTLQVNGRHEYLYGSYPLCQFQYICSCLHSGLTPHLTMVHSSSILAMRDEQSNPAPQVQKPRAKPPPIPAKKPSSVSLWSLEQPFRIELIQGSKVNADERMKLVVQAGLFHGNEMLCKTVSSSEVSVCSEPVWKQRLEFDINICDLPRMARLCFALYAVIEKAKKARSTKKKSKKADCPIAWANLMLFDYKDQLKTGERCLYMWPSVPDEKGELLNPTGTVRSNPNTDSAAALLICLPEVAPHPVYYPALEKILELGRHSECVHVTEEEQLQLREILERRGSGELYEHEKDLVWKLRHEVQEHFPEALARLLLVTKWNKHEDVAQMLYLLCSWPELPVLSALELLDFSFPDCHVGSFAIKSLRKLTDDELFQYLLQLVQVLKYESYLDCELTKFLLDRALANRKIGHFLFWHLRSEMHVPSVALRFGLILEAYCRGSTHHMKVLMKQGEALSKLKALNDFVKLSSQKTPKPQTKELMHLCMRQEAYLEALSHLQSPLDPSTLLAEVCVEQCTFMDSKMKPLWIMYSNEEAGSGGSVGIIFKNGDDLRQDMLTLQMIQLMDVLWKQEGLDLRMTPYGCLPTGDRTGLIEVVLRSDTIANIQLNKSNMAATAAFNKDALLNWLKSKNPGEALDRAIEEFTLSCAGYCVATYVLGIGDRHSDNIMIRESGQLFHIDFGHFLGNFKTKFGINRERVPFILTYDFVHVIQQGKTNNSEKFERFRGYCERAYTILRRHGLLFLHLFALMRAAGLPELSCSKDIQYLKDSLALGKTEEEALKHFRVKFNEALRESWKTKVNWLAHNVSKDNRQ

Sequence of Phosphatidylinositol 4,5-bisphosphate 3-kinase catalytic subunit gamma isoform (P48736 whole entry, canonical isoform): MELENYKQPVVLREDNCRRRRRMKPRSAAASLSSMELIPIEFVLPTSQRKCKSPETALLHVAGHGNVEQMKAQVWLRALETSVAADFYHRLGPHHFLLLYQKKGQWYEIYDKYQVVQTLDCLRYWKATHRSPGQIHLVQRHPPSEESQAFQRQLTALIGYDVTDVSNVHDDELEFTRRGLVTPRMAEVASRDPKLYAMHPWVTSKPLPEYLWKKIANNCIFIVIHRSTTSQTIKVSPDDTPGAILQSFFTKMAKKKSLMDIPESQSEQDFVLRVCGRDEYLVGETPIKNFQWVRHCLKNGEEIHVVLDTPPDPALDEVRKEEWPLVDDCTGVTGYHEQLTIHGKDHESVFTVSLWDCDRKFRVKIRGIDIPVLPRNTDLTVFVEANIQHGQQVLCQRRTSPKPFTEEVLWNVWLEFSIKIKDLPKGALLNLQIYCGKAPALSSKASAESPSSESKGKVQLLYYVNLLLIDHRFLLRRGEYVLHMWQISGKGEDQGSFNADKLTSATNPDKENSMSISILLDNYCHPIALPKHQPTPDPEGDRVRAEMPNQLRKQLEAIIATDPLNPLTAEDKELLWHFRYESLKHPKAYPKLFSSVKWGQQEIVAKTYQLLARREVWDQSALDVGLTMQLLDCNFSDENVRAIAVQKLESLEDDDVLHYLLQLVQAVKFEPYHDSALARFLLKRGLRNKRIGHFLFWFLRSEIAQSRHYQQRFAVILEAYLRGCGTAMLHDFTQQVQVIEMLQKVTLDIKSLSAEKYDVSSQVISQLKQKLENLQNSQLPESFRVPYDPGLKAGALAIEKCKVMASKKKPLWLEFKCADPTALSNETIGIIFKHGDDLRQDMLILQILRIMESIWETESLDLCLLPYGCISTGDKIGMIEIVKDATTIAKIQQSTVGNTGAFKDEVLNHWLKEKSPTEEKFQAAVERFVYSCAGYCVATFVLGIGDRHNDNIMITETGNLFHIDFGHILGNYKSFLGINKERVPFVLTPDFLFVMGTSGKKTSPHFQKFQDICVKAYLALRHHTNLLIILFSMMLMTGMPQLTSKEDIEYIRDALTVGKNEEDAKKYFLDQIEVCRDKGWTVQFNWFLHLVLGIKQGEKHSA
Sequence of Tyrosine-protein kinase JAK1 (P23458 whole entry, canonical isoform): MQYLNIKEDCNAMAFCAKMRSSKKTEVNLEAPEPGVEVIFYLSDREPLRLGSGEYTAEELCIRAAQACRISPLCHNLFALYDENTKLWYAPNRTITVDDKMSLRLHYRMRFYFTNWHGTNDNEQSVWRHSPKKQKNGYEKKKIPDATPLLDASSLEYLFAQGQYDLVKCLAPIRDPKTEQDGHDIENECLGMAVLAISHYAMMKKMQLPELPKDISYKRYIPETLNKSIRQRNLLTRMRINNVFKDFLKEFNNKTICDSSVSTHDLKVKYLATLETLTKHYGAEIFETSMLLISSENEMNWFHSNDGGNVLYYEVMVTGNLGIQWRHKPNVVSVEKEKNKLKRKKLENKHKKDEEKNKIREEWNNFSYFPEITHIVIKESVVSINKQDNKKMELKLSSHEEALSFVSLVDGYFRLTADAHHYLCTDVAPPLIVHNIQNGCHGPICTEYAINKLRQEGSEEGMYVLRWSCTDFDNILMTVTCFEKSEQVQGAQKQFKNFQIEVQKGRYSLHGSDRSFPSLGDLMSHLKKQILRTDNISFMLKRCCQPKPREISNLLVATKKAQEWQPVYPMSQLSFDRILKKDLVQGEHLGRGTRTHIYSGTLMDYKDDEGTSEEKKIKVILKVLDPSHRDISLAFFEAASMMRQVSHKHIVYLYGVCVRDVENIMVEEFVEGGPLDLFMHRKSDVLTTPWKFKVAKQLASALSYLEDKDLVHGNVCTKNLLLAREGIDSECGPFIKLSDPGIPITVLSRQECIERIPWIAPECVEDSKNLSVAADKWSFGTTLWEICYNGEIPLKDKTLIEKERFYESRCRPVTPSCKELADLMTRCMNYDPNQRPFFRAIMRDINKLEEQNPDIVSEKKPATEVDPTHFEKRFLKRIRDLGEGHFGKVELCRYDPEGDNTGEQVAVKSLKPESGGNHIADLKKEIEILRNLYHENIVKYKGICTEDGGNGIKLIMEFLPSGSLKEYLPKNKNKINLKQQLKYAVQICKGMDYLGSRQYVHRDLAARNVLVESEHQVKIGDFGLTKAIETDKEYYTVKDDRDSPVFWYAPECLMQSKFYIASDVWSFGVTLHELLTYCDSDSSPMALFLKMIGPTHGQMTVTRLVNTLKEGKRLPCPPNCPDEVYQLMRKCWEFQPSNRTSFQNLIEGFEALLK

IC50 [1] [nM]	SMILES	IC50 [2] [nM]	IC50 [3] [nM]
< 100	N#CCC(CN1CCN(C(=O)c2ccc(C#N)cc2F)CC1)n1cc(-c2ncnc3[nH]ccc23)cn1 (stereo not drawn) [US10065963, Compound 5]	–	–
–	C[C@H](NC(=O)c1c(N)nn2cccnc12)c1cc(Cl)c2cncn2c1N1CCS(=O)(=O)[C@@H](C)C1 [US10065963, Example 31B]	< 100	< 100
